Laboratory results published in the supplement of paper PMC10307832.

Experiments:
Test in all cases: relative viability (nuclei count vs DMSO), 5 days (fraction); higher = more cells survive
[1] = system: ChaGo-K-1
Procedure, shortened: (§1)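 One day after seeding in 1536-well plates, lung cancer cell lines were dosed by pin tool. Dosing was either single-drug or a fixed anchor-drug dose plus five library-drug doses (not always all listed) in √10 steps. After 5 days, nuclei were stained in one fix-and-stain step and counted on 4× images, and relative viability is the nuclei count of treated wells over that of vehicle wells, given as the median of duplicate plates.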

[2] = system: EMC-BAC-2
Procedure, shortened: as §1

[3] = system: EPLC-272H
Procedure, shortened: as §1

[4] = system: H3255
Procedure, shortened: as §1

[5] = system: HCC-44
Procedure, shortened: as §1

[6] = system: HCC-827
Procedure, shortened: as §1

[7] = system: LCLC-97TM1
Procedure, shortened: as §1

[8] = system: NCI-H1355
Procedure, shortened: as §1

[9] = system: NCI-H1395
Procedure, shortened: as §1

[10] = system: NCI-H1651
Procedure, shortened: as §1

[11] = system: NCI-H1793
Procedure, shortened: as §1

[12] = system: NCI-H1944
Procedure, shortened: as §1

[13] = system: NCI-H1993
Procedure, shortened: as §1

[14] = system: NCI-H2085
Procedure, shortened: as §1

[15] = system: NCI-H2087
Procedure, shortened: as §1

[16] = system: NCI-H23
Procedure, shortened: as §1

[17] = system: NCI-H2405
Procedure, shortened: as §1

[18] = system: NCI-H322M
Procedure, shortened: as §1

[19] = system: NCI-H520
Procedure, shortened: as §1

[20] = system: SK-MES-1
Procedure, shortened: as §1

[21] = system: UMC-11
Procedure, shortened: as §1

## COc1cc(N2CCC(C(N)=O)CC2)ccc1Nc1nc(N)c(Cl)c(Nc2ccccc2S(=O)(=O)C(C)C)n1 [HG-5-88-01] + CC1(C)CCC(c2ccc(Cl)cc2)=C(CN2CCN(c3ccc(C(=O)NS(=O)(=O)c4ccc(N[C@H](CCN5CCOCC5)CSc5ccccc5)c(S(=O)(=O)C(F)(F)F)c4)cc3)CC2)C1 [Navitoclax] (partner 0.5 µM)
[1]; first compound 0.04 µM
  relative viability: 1.05
[1]; first compound 0.1265 µM
  relative viability: 1.09
[1]; first compound 0.4 µM
  relative viability: 0.726
[1]; first compound 1.265 µM
  relative viability: 1.12
[1]; first compound 4 µM
  relative viability: 0.762
[2]; first compound 0.04 µM
  relative viability: 1.11
[2]; first compound 0.1265 µM
  relative viability: 1.23
[2]; first compound 0.4 µM
  relative viability: 1.12
[2]; first compound 1.265 µM
  relative viability: 1.05
[2]; first compound 4 µM
  relative viability: 1.22
[3]; first compound 0.04 µM
  relative viability: 1.22
[3]; first compound 0.1265 µM
  relative viability: 1.05
[3]; first compound 0.4 µM
  relative viability: 1.28
[3]; first compound 1.265 µM
  relative viability: 0.982
[3]; first compound 4 µM
  relative viability: 0.27
[4]; first compound 0.04 µM
  relative viability: 0.506
[4]; first compound 0.1265 µM
  relative viability: 0.467
[4]; first compound 0.4 µM
  relative viability: 0.428
[4]; first compound 4 µM
  relative viability: 0.138
[5]; first compound 0.04 µM
  relative viability: 1.07
[5]; first compound 0.1265 µM
  relative viability: 1.03
[5]; first compound 0.4 µM
  relative viability: 0.77
[5]; first compound 1.265 µM
  relative viability: 0.922
[5]; first compound 4 µM
  relative viability: 0.846
[6]; first compound 0.04 µM
  relative viability: 0.997
[6]; first compound 0.1265 µM
  relative viability: 1.04
[6]; first compound 0.4 µM
  relative viability: 1.03
[6]; first compound 1.265 µM
  relative viability: 1.02
[6]; first compound 4 µM
  relative viability: 0.723
[7]; first compound 0.04 µM
  relative viability: 0.374
[7]; first compound 0.1265 µM
  relative viability: 0.689
[7]; first compound 0.4 µM
  relative viability: 0.347
[7]; first compound 1.265 µM
  relative viability: 0.296
[7]; first compound 4 µM
  relative viability: 0.321
[8]; first compound 0.04 µM
  relative viability: 1.01
[8]; first compound 0.1265 µM
  relative viability: 1.08
[8]; first compound 0.4 µM
  relative viability: 0.959
[8]; first compound 1.265 µM
  relative viability: 0.789
[8]; first compound 4 µM
  relative viability: 0.841
[9]; first compound 0.04 µM
  relative viability: 1.08
[9]; first compound 0.1265 µM
  relative viability: 1.18
[9]; first compound 0.4 µM
  relative viability: 1.25
[9]; first compound 1.265 µM
  relative viability: 1.03
[9]; first compound 4 µM
  relative viability: 1.09
[10]; first compound 0.04 µM
  relative viability: 1.27
[10]; first compound 0.1265 µM
  relative viability: 1.04
[10]; first compound 0.4 µM
  relative viability: 1.08
[10]; first compound 1.265 µM
  relative viability: 1.05
[10]; first compound 4 µM
  relative viability: 1.04
[11]; first compound 0.1265 µM
  relative viability: 0.409
[11]; first compound 0.4 µM
  relative viability: 0.473
[11]; first compound 1.265 µM
  relative viability: 0.296
[11]; first compound 4 µM
  relative viability: 0.438
[12]; first compound 0.04 µM
  relative viability: 1.03
[12]; first compound 0.1265 µM
  relative viability: 1.15
[12]; first compound 0.4 µM
  relative viability: 1.11
[12]; first compound 1.265 µM
  relative viability: 0.985
[12]; first compound 4 µM
  relative viability: 1.04
[13]; first compound 0.04 µM
  relative viability: 1.06
[13]; first compound 0.1265 µM
  relative viability: 0.976
[13]; first compound 0.4 µM
  relative viability: 0.911
[13]; first compound 1.265 µM
  relative viability: 0.736
[13]; first compound 4 µM
  relative viability: 0.735
[14]; first compound 0.04 µM
  relative viability: 1.2
[14]; first compound 0.1265 µM
  relative viability: 1.26
[14]; first compound 0.4 µM
  relative viability: 1.06
[14]; first compound 1.265 µM
  relative viability: 0.873
[14]; first compound 4 µM
  relative viability: 1.13
[15]; first compound 0.04 µM
  relative viability: 0.902
[15]; first compound 0.1265 µM
  relative viability: 1.06
[15]; first compound 0.4 µM
  relative viability: 1.03
[15]; first compound 1.265 µM
  relative viability: 0.971
[15]; first compound 4 µM
  relative viability: 0.943
[16]; first compound 0.04 µM
  relative viability: 0.945
[16]; first compound 0.1265 µM
  relative viability: 0.932
[16]; first compound 0.4 µM
  relative viability: 0.809
[16]; first compound 1.265 µM
  relative viability: 0.815
[16]; first compound 4 µM
  relative viability: 0.659
[17]; first compound 0.04 µM
  relative viability: 0.99
[17]; first compound 0.1265 µM
  relative viability: 1.03
[17]; first compound 0.4 µM
  relative viability: 0.825
[17]; first compound 1.265 µM
  relative viability: 0.319
[17]; first compound 4 µM
  relative viability: 0.784
[18]; first compound 0.04 µM
  relative viability: 1.16
[18]; first compound 0.1265 µM
  relative viability: 1.21
[18]; first compound 0.4 µM
  relative viability: 1.18
[18]; first compound 1.265 µM
  relative viability: 0.907
[18]; first compound 4 µM
  relative viability: 1.26
[19]; first compound 0.04 µM
  relative viability: 1.09
[19]; first compound 0.1265 µM
  relative viability: 1.09
[19]; first compound 0.4 µM
  relative viability: 0.761
[19]; first compound 1.265 µM
  relative viability: 1.17
[19]; first compound 4 µM
  relative viability: 1.26
[20]; first compound 0.04 µM
  relative viability: 1.17
[20]; first compound 0.1265 µM
  relative viability: 1.29
[20]; first compound 0.4 µM
  relative viability: 1.2
[20]; first compound 1.265 µM
  relative viability: 1.21
[20]; first compound 4 µM
  relative viability: 1.03
[21]; first compound 0.04 µM
  relative viability: 0.338
[21]; first compound 0.1265 µM
  relative viability: 0.376
[21]; first compound 0.4 µM
  relative viability: 0.333
[21]; first compound 1.265 µM
  relative viability: 0.322
[21]; first compound 4 µM
  relative viability: 0.303
